Results: US7071195B2, “Amine and amide derivatives as ligands for the neuropeptide Y Y5 receptor useful in the treatment of obesity and other disorders” (Ortho-McNeil Pharmaceutical, Inc., priority 1999, dated 2006)
Structures can show the parent of a compound that is named as a salt.

Molecular target: T1, human neuropeptide Y5 receptor (Homo sapiens, UniProt Q15761)
T1 construct: expressed in transfected cells; host or cells: HEK-293 (stably transfected, G-418 selected); membranes
T1 sequence (Q15761 1-445): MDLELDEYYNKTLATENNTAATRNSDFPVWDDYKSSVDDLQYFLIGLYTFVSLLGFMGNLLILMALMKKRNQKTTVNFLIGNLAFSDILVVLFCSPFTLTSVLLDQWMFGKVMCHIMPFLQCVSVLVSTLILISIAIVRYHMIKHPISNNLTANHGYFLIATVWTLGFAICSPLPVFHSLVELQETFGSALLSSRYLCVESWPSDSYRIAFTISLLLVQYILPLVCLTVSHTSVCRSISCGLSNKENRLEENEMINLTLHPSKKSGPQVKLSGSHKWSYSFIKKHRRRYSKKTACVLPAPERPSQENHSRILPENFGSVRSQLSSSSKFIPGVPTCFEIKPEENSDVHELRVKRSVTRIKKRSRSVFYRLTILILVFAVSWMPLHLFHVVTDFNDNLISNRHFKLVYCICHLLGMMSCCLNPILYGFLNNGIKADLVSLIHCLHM
Experiment: NPY5 HTS centrifugation assay: competition with 125I-PYY for binding to membranes of NPY5-transfected HEK293 cells
Details: 80 pM 125I-PYY, 1 hr room temperature; for % Inh @ 300 nM (% Inhibition of 125I-PYY Binding) / inhibition at 0.3 µM: 300 nM compound; for % Inh @ 3 uM (% Inhibition of 125I-PYY Binding) / inhibition at 3 µM: 3 uM compound; for inhibition at 0.3 µM: read-out: % Inh @ 300 nM (% Inhibition of 125I-PYY Binding); for inhibition at 3 µM: read-out: % Inh @ 3 uM (% Inhibition of 125I-PYY Binding)
Procedure: The compounds described in this invention were evaluated for binding to the human neuropeptide Y5 receptor.
Stably transfected cells served as the source for the membranes for the NPY5 receptor binding assay.
NPY5-transfected HEK293 cells were grown to confluence in 150 cm^2 culture dishes. […] Cells were then incubated in phosphate-buffered saline without Calcium and without Magnesium, supplemented with 2 mM EDTA. Cells were incubated for 10 minutes at room temperature and the cells were collected by repetitive pipeting. Cells were formed into pellets and then frozen at −80 until needed. Frozen pellets were homogenized with a polytron at full speed for 12 seconds in a homogenization buffer (20 mM Tris HCl, 5 mM EDTA, pH 7.4). Homogenates were centrifuged for 5 minutes at 4 C at 200 g. Supernatants were transferred to corex tubes and centrifuged for 25 minutes at 28,000 g. Pellets were re-suspended in Binding (20 mM HEPES, 10 mM NaCl, 0.22 mM KH2PO4, 1.3 mM CaCl2, 0.8 mM MgSO4, pH 7.4). Membranes were kept on ice until use.
Compounds to be tested were prepared as 10× stocks in binding buffer and added first to assay tubes (RIA vials, Sarstedt). […] To each tube is added 100 μL of membranes and the mixture is agitated by pipeting 2 times. Samples are incubated for 1 hr at room temperature. Aluminum cast plates (Sarstedt) containing the vials are then centrifuged 10 minutes at 3200 rpm in a Sorvall RT6000. Supernatant is then aspirated. To each vial 400 μL PBS is added and this is then aspirated again. Vials are then put in carrier polypropylene 12×75 tube and counted in gamma counter (Packard). Non-specific binding is determined in the presence of 300 nM NPY. […] These operations are known to those skilled in the art.

Row | Compound | % Inh @ 300 nM (% Inhibition of 125I-PYY Binding) [%] | % Inh @ 3 uM (% Inhibition of 125I-PYY Binding) [%] | inhibition at 0.3 µM [%] | inhibition at 3 µM [%]
1 | CC(C)(C)OC(=O)NC1CCN(CC(=O)NC2CCc3cc(F)ccc3C2Cc2cccnc2)C1 (mixture of isomers) [Compound 56] | 88 | 94 | – | –
2 | NC(CCCCNS(=O)(=O)c1ccccc1)C(=O)NC1CCc2ccccc2C1Cc1cccnc1 (single isomer, unassigned) [Compound 34a] | 87 | 97 | – | –
3 | CCNC(=O)NC(CCCCNS(=O)(=O)c1ccccc1)C(=O)NC1CCc2ccccc2C1Cc1cccnc1 (mixture of isomers) [Compound 40] | 21 | 92 | – | –
4 | O=S(=O)(NC[C@H]1CC[C@H](CNCC(Cc2cccnc2)c2ccc(F)cc2)CC1)c1ccccc1F (stereo partly drawn) [Compound 27] | – | – | 105 | 110
5 | COc1ccc2c(c1)CCC(NC(=O)CN1CCC(n3c(=O)[nH]c4ccccc43)CC1)C2Cc1cnc[nH]1 (stereo not drawn) [Compound 73] | 32 | 63 | – | –
6 | O=C(CN1CCC(NC(=O)c2ccccc2)CC1)NCC(Cc1cccnc1)c1ccc(F)cc1 (stereo not drawn) [Compound 92] | 92 | 104 | – | –
7 | CC(C)(C)OC(=O)NC1CCN(CC(=O)NC2CCc3cc(F)ccc3C2Cc2cccnc2)C1 (mixture of isomers) [Compound 57] | 87 | 93 | – | –
8 | COc1ccccc1N1CCN(CC(=O)NC2CCc3ccccc3C2Cc2cccnc2)CC1 (stereo not drawn) [Compound 93] | 81 | 97 | – | –
9 | CN(C)C(CCCCNS(=O)(=O)c1ccccc1)C(=O)NC1CCc2ccccc2C1Cc1cccnc1 (single isomer, unassigned) [Compound 43b] | 62 | 86 | – | –
10 | O=C(CN1CCC(NC(=O)Nc2ccccc2)CC1)NC1CCc2cc(F)ccc2C1Cc1cccnc1 (stereo not drawn) [Compound 45] | 68 | 95 | – | –
11 | O=C(CN1CCC(NC(=O)Nc2ccccc2)CC1)NC1CCc2ccccc2C1Cc1cccnc1 (stereo not drawn) [Compound 51] | 85 | 102 | – | –
12 | COc1ccc2c(c1)CC[C@@H](NC(=O)CN1CCC(n3c(=O)[nH]c4ccccc43)CC1)[C@@H]2Cc1cccnc1 (relative stereo) [Compound 20, 4-(2,3-Dihydro-2-oxo-1H-benzimidazol-1-yl)-N-[trans-1,2,3,4-tetrahydro-6-methoxy-1-(3-pyridinylmethyl)-2-naphthalenyl]-1-piperidineacetamide bis-hydrochloride] | – | – | 88 | 96
13 | O=C(CN1CCC(NS(=O)(=O)c2ccccc2)C1)N[C@H]1CCc2cc(F)ccc2[C@H]1Cc1cccnc1 (relative stereo) [Compound 17, 3-[(Phenylsulfonyl)amino]-N-[cis-1,2,3,4-tetrahydro-6-fluoro-1-(3-pyridinylmethyl)-2-naphthalenyl]-1-pyrrolidineacetamide bis-trifluoroacetate] | – | – | 98 | 102
14 | O=C(CN1CCC(NS(=O)(=O)c2ccccc2)C1)NC1CCc2cc(F)ccc2C1Cc1cccnc1 (mixture of isomers) [Compound 58] | 93 | 91 | – | –
15 | O=C(CN1CCC(n2c(=O)[nH]c3ccccc32)CC1)NCC(Cc1cccnc1)c1ccc(O)cc1 (stereo not drawn) [Compound 87] | 97 | 96 | – | –
16 | O=C(CN1CCC(NC(=O)c2ccccc2)CC1)NC1CCc2cc(F)ccc2C1Cc1cccnc1 (stereo not drawn) [Compound 44] | 93 | 98 | – | –
17 | CC(=O)NC(CCCCNS(=O)(=O)c1ccccc1)C(=O)NC1CCc2ccccc2C1Cc1cccnc1 (single isomer, unassigned) [Compound 38b] | 89 | 101 | – | –
18 | O=C(NC(CCCCNS(=O)(=O)c1ccccc1)C(=O)NC1CCc2ccccc2C1Cc1cccnc1)c1ccccc1 (mixture of isomers) [Compound 39] | 70 | 95 | – | –
19 | O=C(CN1CCC2(CC1)C(=O)NCN2c1ccccc1)N[C@H]1CCc2ccccc2[C@H]1Cc1cccnc1 (relative stereo) [Compound 22, 4-Oxo-1-phenyl-N-[cis-1,2,3,4-tetrahydro-1-(3-pyridinylmethyl)-2-naphthalenyl]-1,3,8-triazaspiro[4.5]decane-8-acetamide bis-hydrochloride] | – | – | 32 | 70
20 | CC(=O)NC(CCCCNS(=O)(=O)c1ccccc1)C(=O)NC1CCc2ccccc2C1Cc1cccnc1 (single isomer, unassigned) [Compound 38a] | 80 | 104 | – | –
21 | COc1ccc(C(CNC(=O)CN2CCC(n3c(=O)[nH]c4ccccc43)CC2)Cc2cccnc2)cc1 (stereo not drawn) [Compound 86] | 88 | 91 | – | –
22 | NC(CCCCNS(=O)(=O)c1ccccc1)C(=O)NC1CCc2ccccc2C1Cc1cccnc1 (single isomer, unassigned) [Compound 34b] | 61 | 99 | – | –
23 | CN(C)C(CCCCNS(=O)(=O)c1ccccc1)C(=O)NC1CCc2ccccc2C1Cc1cccnc1 (single isomer, unassigned) [Compound 43a] | 84 | 93 | – | –
24 | COc1ccc2c(c1)CC[C@H](NC(=O)CN1CCC(n3c(=O)[nH]c4ccccc43)CC1)[C@@H]2Cc1cccnc1 (relative stereo) [Compound 19, 4-(2,3-Dihydro-2-oxo-1H-benzimidazol-1-yl)-N-[cis-1,2,3,4-tetrahydro-6-methoxy-1-(3-pyridinylmethyl)-2-naphthalenyl]-1-piperidineacetamide Bis-hydrochloride] | – | – | 69 | 101
25 | COc1ccc2c(c1)CCC(NC(=O)CN1CCC(n3c(=O)[nH]c4ccccc43)CC1)C2 (stereo not drawn) [Compound 82] | 63 | 85 | – | –
26 | CC(=O)C1(c2ccccc2)CCN(CC(=O)N[C@H]2CCc3ccccc3[C@H]2Cc2cccnc2)CC1 (relative stereo) [Compound 21, 4-Acetyl-4-phenyl-N-[cis-1,2,3,4-tetrahydro-1-(3-pyridinylmethyl)-2-naphthalenyl]-1-piperidineacetamide bis-hydrochloride] | – | – | 83 | 98
27 | O=C(CN1CCC(n2c(=O)[nH]c3ccccc32)CC1)NC1CCc2cc(O)ccc2C1 (stereo not drawn) [Compound 83] | 72 | 92 | – | –
28 | O=C(Nc1ccccc1)NC(CCCCNS(=O)(=O)c1ccccc1)C(=O)NC1CCc2ccccc2C1Cc1cccnc1 (mixture of isomers) [Compound 72] | 41 | 73 | – | –
29 | NC(CCCCNS(=O)(=O)c1ccccc1)CNC1CCc2ccccc2C1Cc1cccnc1 (mixture of isomers) [Compound 65] | 79 | 98 | – | –
30 | O=C(NCC(Cc1cccnc1)c1ccc(F)cc1)[C@H]1CC[C@H](CNS(=O)(=O)c2ccccc2F)CC1 (relative stereo) [Compound 26, trans-N-[2-(4-fluorophenyl)-3-(3-pyridinyl)propyl]-4-[((2-fluorophenylsulfonyl)amino)methyl]-1-cyclohexanamide hydrochloride] | – | – | 108 | 110
